Molecular target: T1, rat mGlu 5a receptor (Rattus norvegicus, UniProt P31424)
T1 construct: expressed in transfected cells; host or cells: EBNA cells (transient transfection)
Test: [Ca2+]i FLIPR antagonist assay on mGlu 5a transfected EBNA cells against 10 μM glutamate
Assay type: cell-based
Conditions: rat mGlu 5a transiently transfected EBNA cells; against 10 μM glutamate as agonist
Method: The pharmacological activity of the compounds of the present invention was tested using the following methods: cDNA encoding rat mGlu 5a receptor was transiently transfected into EBNA cells using a procedure described by E.-J. Schlaeger and K. Christensen (Transient gene expression in mammalian cells grown in serum-free suspension culture, Cytotechnology 1999, 30, 71-83). [Ca^2+]i measurements were performed on mGlu 5a transfected EBNA cells after incubation of the cells with Fluo 3-AM (obtainable by FLUKA, 0.5 μM final concentration) for 1 hour at 37° C. followed by 4 washes with assay buffer (DMEM supplemented with Hank's salt and 20 mM HEPES. [Ca^2+]i measurements were done using a fluorometric imaging plate reader (FLIPR, Molecular Devices Corporation, La Jolla, Calif., USA). When compounds were evaluated as antagonists they were tested against 10 μM glutamate as agonist.
The inhibition (antagonist) curves were fitted with a four parameter logistic equation giving IC50, and Hill coefficient using the iterative non linear curve fitting software Origin (Microcal Software Inc., Northampton, Mass., USA).

T1 sequence (P31424 21-1171 isoform P31424-2 limits assumed): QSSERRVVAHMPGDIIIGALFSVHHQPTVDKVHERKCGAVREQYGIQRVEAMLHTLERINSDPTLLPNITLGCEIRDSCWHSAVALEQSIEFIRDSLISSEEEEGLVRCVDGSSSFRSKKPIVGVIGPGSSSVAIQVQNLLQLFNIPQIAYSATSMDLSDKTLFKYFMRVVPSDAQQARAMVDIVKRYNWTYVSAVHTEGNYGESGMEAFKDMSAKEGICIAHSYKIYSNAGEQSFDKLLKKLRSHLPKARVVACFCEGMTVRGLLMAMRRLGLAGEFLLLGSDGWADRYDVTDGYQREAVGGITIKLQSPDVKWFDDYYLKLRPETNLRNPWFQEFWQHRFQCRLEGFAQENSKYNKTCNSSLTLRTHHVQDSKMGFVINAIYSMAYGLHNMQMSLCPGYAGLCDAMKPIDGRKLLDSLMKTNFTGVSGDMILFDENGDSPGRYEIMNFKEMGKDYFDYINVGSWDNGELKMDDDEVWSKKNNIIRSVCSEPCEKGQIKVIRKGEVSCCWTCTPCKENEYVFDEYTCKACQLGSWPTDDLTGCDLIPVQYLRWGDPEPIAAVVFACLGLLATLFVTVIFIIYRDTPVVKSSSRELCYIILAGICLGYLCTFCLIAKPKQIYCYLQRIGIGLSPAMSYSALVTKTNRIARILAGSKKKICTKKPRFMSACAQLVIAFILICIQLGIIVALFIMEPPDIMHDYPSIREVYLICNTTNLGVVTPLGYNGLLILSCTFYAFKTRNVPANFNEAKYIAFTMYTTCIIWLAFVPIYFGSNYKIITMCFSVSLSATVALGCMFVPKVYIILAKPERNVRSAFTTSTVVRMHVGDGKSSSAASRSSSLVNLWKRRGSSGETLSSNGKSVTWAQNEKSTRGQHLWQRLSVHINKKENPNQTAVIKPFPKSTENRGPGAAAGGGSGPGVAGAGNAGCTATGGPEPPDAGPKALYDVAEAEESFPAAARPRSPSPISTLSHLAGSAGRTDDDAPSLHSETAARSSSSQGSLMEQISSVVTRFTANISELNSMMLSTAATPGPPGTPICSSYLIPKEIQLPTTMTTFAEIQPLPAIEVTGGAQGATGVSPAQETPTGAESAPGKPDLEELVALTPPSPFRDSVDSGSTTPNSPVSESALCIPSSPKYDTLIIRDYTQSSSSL

Question: Which IC50 does the source give for `Cc1ccc(-c2cn3ccc(Cl)cc3n2)cc1C` [Example 1, 7-Chloro-2-(3,4-dimethyl-phenyl)-imidazo[1,2-a]pyridine] here?
Answer: The IC50 was 100 nM.

Question: Which IC50 does the source give for `COc1ccc(-c2cn3ccc(C)cc3n2)cc1OC` [Example 2, 2-(3,4-Dimethoxy-phenyl)-7-methyl-imidazo[1,2-a]pyridine] here?
Answer: The IC50 was 1880 nM.

Question: With `COc1ccc(-c2cn3ccccc3n2)cc1OC` [Example 3, 2-(3,4-Dimethoxy-phenyl)-imidazo[1,2-a]pyridine] as the molecule, how does the IC50 read?
Answer: Its IC50 is 6800 nM.

Question: Which IC50 does the source give for `COc1ccn2cc(-c3ccc(C)c(C)c3)nc2c1` [Example 4, 2-(3,4-Dimethyl-phenyl)-7-methoxy-imidazo[1,2-a]pyridine] here?
Answer: The IC50 was 140 nM.

Question: Which IC50 does the source give for `COc1ccn2cc(-c3ccc(OC)c(OC)c3)nc2c1` [Example 5, 2-(3,4-Dimethoxy-phenyl)-7-methoxy-imidazo[1,2-a]pyridine] here?
Answer: The IC50 was 3300 nM.

Question: With `Cc1ccc(-c2cn3ccccc3n2)cc1C.Cl` [Example 6, 2-(3,4-Dimethyl-phenyl)-imidazo[1,2-a]pyridine hydrochloride] as the molecule, how does the IC50 read?
Answer: The IC50 was 37 nM.

Question: Which IC50 does the source give for `Cc1ccn2cc(-c3ccc(C)c(C)c3)nc2c1` [Example 7, 2-(3,4-Dimethyl-phenyl)-7-methyl-imidazo[1,2-a]pyridine] here?
Answer: The IC50 was 280 nM.

Question: With `Fc1ccc(-c2cn3ccccc3n2)cc1Br` [Example 8, 2-(3-Bromo-4-fluoro-phenyl)-imidazo[1,2-a]pyridine] as the molecule, how does the IC50 read?
Answer: The IC50 was 690 nM.

Question: With `COc1cc(-c2cn3ccccc3n2)ccc1OCc1ccccc1` [Example 9, 2-(4-Benzyloxy-3-methoxy-phenyl)-imidazo[1,2-a]pyridine] as the molecule, how does the IC50 read?
Answer: The IC50 was 830 nM.

Question: With `c1ccn2cc(-c3ccc4c(c3)CCC4)nc2c1` [Example 10, 2-Indan-5-yl-imidazo[1,2-a]pyridine] as the molecule, how does the IC50 read?
Answer: Its IC50 is 930 nM.

Question: Which IC50 does the source give for `Brc1cccc(-c2cn3ccccc3n2)c1` [Example 11, 2-(3-Bromo-phenyl)-imidazo[1,2-a]pyridine] here?
Answer: The IC50 was 950 nM.

Question: For `Ic1cccc(-c2cn3ccccc3n2)c1` [Example 12, 2-(3-Iodo-phenyl)-imidazo[1,2-a]pyridine], which IC50 is on record?
Answer: The IC50 was 970 nM.

Question: With `Clc1cccc(-c2cn3ccccc3n2)c1` [Example 13, 2-(3-Chloro-phenyl)-imidazo[1,2-a]pyridine] as the molecule, how does the IC50 read?
Answer: The IC50 was 1230 nM.

Question: With `Cc1cccc(-c2cn3ccccc3n2)c1` [Example 14, 2-(3-Methyl-phenyl)-imidazo[1,2-a]pyridine] as the molecule, how does the IC50 read?
Answer: Its IC50 is 1550 nM.

Question: With `c1ccc2oc(-c3cn4ccccc4n3)cc2c1` [Example 15, 2-Benzofuran-2-yl-imidazo[1,2-a]pyridine] as the molecule, how does the IC50 read?
Answer: Its IC50 is 1660 nM.

Question: For `c1ccc2c(-c3cn4ccccc4n3)csc2c1` [Example 16, 2-Benzo[b]thiophen-3-yl-imidazo[1,2-a]pyridine], which IC50 is on record?
Answer: Its IC50 is 2760 nM.

Question: For `FC(F)(F)c1cccc(-c2cn3ccccc3n2)c1` [Example 17, 2-(3-Trifluoromethyl-phenyl)-imidazo[1,2-a]pyridine], which IC50 is on record?
Answer: The IC50 was 2790 nM.

Question: With `c1ccn2cc(-c3ccc4c(c3)CCO4)nc2c1` [Example 18, 2-(2,3-Dihydro-benzofuran-5-yl)-imidazo[1,2-a]pyridine] as the molecule, how does the IC50 read?
Answer: Its IC50 is 2860 nM.

Question: Which IC50 does the source give for `Fc1cccc(-c2cn3ccccc3n2)c1` [Example 19, 2-(3-Fluoro-phenyl)-imidazo[1,2-a]pyridine] here?
Answer: The IC50 was 3410 nM.

Question: Which IC50 does the source give for `CCc1ccn2cc(-c3ccc(C)c(C)c3)nc2c1` [Example 20, 2-(3,4-Dimethyl-phenyl)-7-ethyl-imidazo[1,2-a]pyridine] here?
Answer: The IC50 was 3640 nM.

Question: Which IC50 does the source give for `Cc1ccc(-c2cn3ccccc3n2)s1` [Example 21, 2-(5-Methyl-thiophen-2-yl)-imidazo[1,2-a]pyridine] here?
Answer: The IC50 was 6130 nM.

Question: With `Cc1ccn2cc(-c3ccccc3)nc2c1` [Example 22, 7-Methyl-2-phenyl-imidazo[1,2-a]pyridine] as the molecule, how does the IC50 read?
Answer: Its IC50 is 7500 nM.

Question: For `Cc1ccc(-c2cn3ccccc3n2)cc1` [Example 23, 2-(4-Methyl-phenyl)-imidazo[1,2-a]pyridine], which IC50 is on record?
Answer: The IC50 was 8770 nM.

Question: For `Cc1cc(-c2cn3ccccc3n2)c(C)s1` [Example 24, 2-(2,5-Dimethyl-thiophen-3-yl)-imidazo[1,2-a]pyridine], which IC50 is on record?
Answer: Its IC50 is 580 nM.

Question: For `COc1cccc(-c2cn3ccccc3n2)c1` [Example 25, 2-(3-Methoxy-phenyl)-imidazo[1,2-a]pyridine], which IC50 is on record?
Answer: Its IC50 is 1650 nM.

Question: For `COc1ccc(-c2cn3cc(C)ccc3n2)cc1OC` [Example 26, 2-(3,4-Dimethoxy-phenyl)-6-methyl-imidazo[1,2-a]pyridine], which IC50 is on record?
Answer: The IC50 was 8300 nM.

Question: With `c1ccn2cc(-c3ccc4c(c3)OCCO4)nc2c1` [Example 27, 2-(2,3-Dihydro-benzo [1,4]dioxin-6-yl)-imidazo[1,2-a]pyridine] as the molecule, how does the IC50 read?
Answer: The IC50 was 990 nM.

Question: Which IC50 does the source give for `Cc1ccc(-c2cn3cc(C)ccc3n2)cc1` [Example 28, 6-Methyl-2-(4-methyl-phenyl)-imidazo[1,2-a]pyridine] here?
Answer: The IC50 was 10000 nM.

Question: For `O=[N+]([O-])c1cccc(-c2cn3ccccc3n2)c1` [Example 29, 2-(3-Nitro-phenyl)-imidazo[1,2-a]pyridine], which IC50 is on record?
Answer: The IC50 was 10000 nM.

Same assay, conditions: statement in words, compared with compounds of formula I

Question: With `Cc1ccc(-c2nc3ccc(C)cn3c2CC(=O)N(C)C)cc1` [N,N,6-trimethyl-2-(4-methylphenyl)-imidazo[1,2-a]pyridine-3-acetamide, reference compound] as the molecule, how does the “affinity toward the mGluR5 receptor” value read?
Answer: The value was “does not possess the affinity toward the mGluR5 receptor”.

Molecular target: central benzodiazepine receptors
Test: Inhibition of binding of tritiated flumazenil to benzodiazepine receptors in rat cortex
Conditions: [3H]flumazenil, Cheng & Prusoff
Method: The affinity of compounds of formula I to the central benzodiazepine receptors in vitro was also tested using standard methods as for example described in Nature 1981, 294, 763-765 and J. Neurochemistry 1981, 37, 714-722. According to these methods, the inhibition of the binding of tritiated flumazenil to the specific benzodiazepine receptors in the cortex of rats by the respective test substances is determined and the inhibition dissociation constant (Ki) of each test compound is determined according to the method of Cheng & Prusoff (1973).

Question: With `Cc1ccc(-c2cn3ccccc3n2)cc1C.Cl` [Example 6, 2-(3,4-Dimethyl-phenyl)-imidazo[1,2-a]pyridine hydrochloride] as the molecule, how does the “pKi (negative logarithm of the Ki)” value read?
Answer: The value was 5.2.

Tested on: not given
Test: not given
Conditions: not given

Question: With `Cc1ccc(-c2cn3ccc(Cl)cc3n2)cc1C` [Example 1, 7-Chloro-2-(3,4-dimethyl-phenyl)-imidazo[1,2-a]pyridine] as the molecule, how does the melting point read?
Answer: Its melting point is 144 °C.

Question: For `COc1ccc(-c2cn3ccc(C)cc3n2)cc1OC` [Example 2, 2-(3,4-Dimethoxy-phenyl)-7-methyl-imidazo[1,2-a]pyridine], which melting point is on record?
Answer: Its melting point is 163 °C.

Question: Which melting point does the source give for `COc1ccn2cc(-c3ccc(C)c(C)c3)nc2c1` [Example 4, 2-(3,4-Dimethyl-phenyl)-7-methoxy-imidazo[1,2-a]pyridine] here?
Answer: The melting point was 175 °C.

Question: With `COc1ccn2cc(-c3ccc(OC)c(OC)c3)nc2c1` [Example 5, 2-(3,4-Dimethoxy-phenyl)-7-methoxy-imidazo[1,2-a]pyridine] as the molecule, how does the melting point read?
Answer: The melting point was 142 °C.

Tested on: central benzodiazepine receptors
Test: not given
Conditions: from cited reference (Eur. J. Pharmacol. 1986, 130(3), 257-263); cited from earlier work

Question: With `Cc1ccc(-c2nc3ccc(C)cn3c2CC(=O)N(C)C)cc1` [N,N,6-trimethyl-2-(4-methylphenyl)-imidazo[1,2-a]pyridine-3-acetamide, reference compound] as the molecule, how does the “agonist properties at central benzodiazepine receptors” value read?
Answer: Its value is “possesses agonist properties at central benzodiazepine receptors”.

Reference: patent US6916826B2, “Substituted imidazo[1,2-a]pyridine derivatives” (Hoffman-La Roche Inc., priority 2001, dated 2005)
